Entries after “also recorded” stand apart in the source; their conditions may differ. Like-named read-outs stand apart in the source and are kept apart here.
What was measured:
[1] = Adverse events and ECG; type: in vivo, human
[2] = type: in vivo, human; settings: 20 mg oral
[3] = highly soluble, highly permeable class; cited from earlier work
[4] = fasting state, two other phase 1 studies, CV 56%; cited from earlier work
[5] = administered on days 1 and 4 of a weekly schedule; cited from earlier work
[6] = test system: advanced solid tumors; assay: Tumor response by RECIST version 1.0; type: in vivo, human
[7] = Adverse events, laboratory abnormalities and ECG; type: in vivo, human; settings: continual treatment phase, 45 mg
[8] = high-fat breakfast vs fasting, P < 0.001; cited from earlier work
[9] = 20 mg, all patients (n = 36), any grade
[10] = 20 mg, high-fat breakfast (n = 36), any grade
[11] = 20 mg, high-fat breakfast, any grade
[12] = 20 mg, normal breakfast (n = 34), any grade
[13] = 20 mg, normal breakfast, any grade
[14] = 20 mg, overnight fast (n = 34), any grade
[15] = food-effect phase, 20 mg, N = 36, Grade 3/4, regardless of study drug relationship
[16] = food-effect phase, 20 mg, N = 36, any grade, regardless of study drug relationship
[17] = food-effect phase, 20 mg, any grade
[18] = N = 29, Grade 3/4, regardless of study drug relationship
[19] = N = 29, any grade, regardless of study drug relationship

SMILES: Cc1[nH]c2ccccc2c1CCNCc1ccc(/C=C/C(=O)NO)cc1 [panobinostat, Panobinostat]
- Panobinostat-related fatigue [1, 9]: 16 (44.4) n (%)
- Panobinostat-related nausea [1, 9]: 11 (30.6) n (%)
- Panobinostat-related vomiting [1, 9]: 7 (19.4) n (%)
- drug-related diarrhea, frequency ([1]; 20 mg, fasting, any grade): 5.9%
- drug-related nausea, frequency ([1]; 20 mg, fasting, any grade): 14.7%
- drug-related vomiting, frequency ([1]; 20 mg, fasting, any grade): 14.7%
- Panobinostat-related fatigue [1, 10]: 5 (13.9) n (%)
- Panobinostat-related nausea [1, 10]: 3 (8.3) n (%)
- Panobinostat-related vomiting [1, 10]: 1 (2.8) n (%)
- drug-related diarrhea, frequency [1, 11]: 0%
- drug-related fatigue, frequency [1, 11]: 13.9%
- drug-related nausea, frequency [1, 11]: 8.3%
- drug-related vomiting, frequency [1, 11]: 2.8%
- Panobinostat-related fatigue [1, 12]: 10 (29.4) n (%)
- Panobinostat-related nausea [1, 12]: 8 (23.5) n (%)
- Panobinostat-related vomiting [1, 12]: 5 (14.7) n (%)
- drug-related diarrhea, frequency [1, 13]: 8.8%
- drug-related fatigue, frequency [1, 13]: 29.4%
- drug-related nausea, frequency [1, 13]: 23.5%
- drug-related vomiting, frequency [1, 13]: 14.7%
- Panobinostat-related fatigue [1, 14]: 1 (2.9) n (%)
- Panobinostat-related nausea [1, 14]: 5 (14.7) n (%)
- Panobinostat-related vomiting [1, 14]: 5 (14.7) n (%)
- drug-related fatigue, frequency ([1]; 20 mg, overnight fast, any grade): 2.9%
- patients with SAEs ([1]; food-effect phase, 20 mg): seven
- reported grade 3 or 4 AEs ([1]; food-effect phase, 20 mg): eight
- QTcF >480 ms or >60 ms increase from baseline ([1]; food-effect phase, 20 mg, 12-lead ECG): no QTcF >480 ms or >60 ms increase from baseline was observed
- Abdominal pain [1, 15]: 0 (0) n (%)
- Constipation [1, 15]: 0 (0) n (%)
- Diarrhea [1, 15]: 1 (2.8) n (%)
- Fatigue [1, 15]: 3 (8.3) n (%)
- Headache [1, 15]: 0 (0) n (%)
- Nausea [1, 15]: 2 (5.6) n (%)
- Pyrexia [1, 15]: 0 (0) n (%)
- Thrombocytopenia [1, 15]: 0 (0) n (%)
- Total adverse events [1, 15]: 8 (22.2) n (%)
- Vomiting [1, 15]: 2 (5.6) n (%)
- Abdominal pain [1, 16]: 5 (13.9) n (%)
- Constipation [1, 16]: 7 (19.4) n (%)
- Diarrhea [1, 16]: 7 (19.4) n (%)
- Fatigue [1, 16]: 18 (50.0) n (%)
- Headache [1, 16]: 6 (16.7) n (%)
- Nausea [1, 16]: 15 (41.7) n (%)
- Pyrexia [1, 16]: 5 (13.9) n (%)
- Thrombocytopenia [1, 16]: 5 (13.9) n (%)
- Total adverse events [1, 16]: 34 (94.4) n (%)
- Vomiting [1, 16]: 10 (27.8) n (%)
- Fatigue, frequency [1, 17]: 50%
- Nausea, frequency [1, 17]: 41.7%
- Thrombocytopenia, frequency [1, 17]: 13.9%
- Vomiting, frequency [1, 17]: 27.8%
- study-drug related SAEs ([1]; food-effect phase, 20 mg, grade 3 fatigue and grade 3 vomiting): two
- patients discontinued due to adverse events ([1]; food-effect phase, grade 3 fatigue and nausea/vomiting following a normal breakfast): one
- effect of prandial state on mean elimination half-life ([2]; fasting vs high-fat vs normal breakfast): not altered; also recorded: unaltered
- reduction of systemic exposure following food ([2]; food vs fasting): 14–16%
- interpatient variability of exposure (coefficient of variation) ([2]; with or without food): 59%
- Cmax reduction ([2]; high-fat breakfast vs fasting): 44%
- Tmax, median difference (range) ([2]; high-fat breakfast/fasting): 2.48 (–2.00 to 7.02) h
- AUC(0-inf) ([2]; human, plasma, po, 20 mg, AUC0–∞, mean (CV, %), fasting (n = 33)): 176 ng·h/mL
- Cmax ([2]; human, plasma, po, 20 mg, Cmax, mean (CV, %), fasting (n = 33)): 23 ng/mL
- Tmax ([2]; human, plasma, po, 20 mg, Tmax, median (range), fasting (n = 33)): 1.5 h
- half-life ([2]; human, plasma, po, 20 mg, t1/2, mean (CV, %), fasting (n = 33)): 14.5 h
- Cmax reduction ([2]; normal breakfast vs fasting): 36%
- Tmax, median difference (range) ([2]; normal breakfast/fasting): 1.45 (–2.50 to 2.02) h
- Biopharmaceutics Classification System class [3]: Class I like
- mean AUC0–∞ [4]: 183 ng·h/mL
- accumulation [5]: did not accumulate
- progressive disease, share of patients ([6]; N = 36, RECIST): 58.3%
- partial response, share of patients ([6]; N = 36, best response, RECIST): 2.8%
- stable disease, share of patients ([6]; N = 36, best response, RECIST): 16.7%
- Fatigue, overall frequency [7]: 48.3%
- Nausea, overall frequency [7]: 37%
- Vomiting, overall frequency [7]: 31.0%
- frequency of grade 3 and 4 AEs [7]: 65.5%
- grade 3/4 biochemical abnormality: hypophosphatemia [7]: 10.3%
- grade 3/4 newly occurring or worsened hematologic laboratory abnormality: decreased platelet count [7]: 44.8%
- Abdominal pain [7, 18]: 1 (3.4) n (%)
- Anemia [7, 18]: 1 (3.4) n (%)
- Anorexia [7, 18]: 0 (0.0) n (%)
- Constipation [7, 18]: 0 (0.0) n (%)
- Decreased platelet count [7, 18]: 3 (10.3) n (%)
- Diarrhea [7, 18]: 1 (3.4) n (%)
- Dyspnea [7, 18]: 0 (0.0) n (%)
- Fatigue [7, 18]: 5 (17.2) n (%)
- Headache [7, 18]: 0 (0.0) n (%)
- Nausea [7, 18]: 1 (3.4) n (%)
- Pyrexia [7, 18]: 0 (0.0) n (%)
- Thrombocytopenia [7, 18]: 11 (37.9) n (%)
- Total adverse events [7, 18]: 19 (65.5) n (%)
- Vomiting [7, 18]: 2 (6.9) n (%)
- Abdominal pain [7, 19]: 6 (20.7) n (%)
- Anemia [7, 19]: 5 (17.2) n (%)
- Anorexia [7, 19]: 10 (34.5) n (%)
- Constipation [7, 19]: 3 (10.3) n (%)
- Decreased platelet count [7, 19]: 6 (20.7) n (%)
- Diarrhea [7, 19]: 8 (27.6) n (%)
- Dyspnea [7, 19]: 7 (24.1) n (%)
- Fatigue [7, 19]: 14 (48.3) n (%)
- Headache [7, 19]: 5 (17.2) n (%)
- Nausea [7, 19]: 11 (37.9) n (%)
- Pyrexia [7, 19]: 3 (10.3) n (%)
- Thrombocytopenia [7, 19]: 15 (51.7) n (%)
- Total adverse events [7, 19]: 26 (89.7) n (%)
- Vomiting [7, 19]: 9 (31.0) n (%)
- Thrombocytopenia, frequency ([7]; any grade): 51.7%
- Thrombocytopenia, frequency ([7]; grade 3/4): 37.9%
- patients with QTc-interval abnormalities ([7]; QTcF >500 ms and/or increase >60 ms from baseline): two

SMILES: O=C(CCCCCCC(=O)Nc1ccccc1)NO [vorinostat]
- delay in Tmax by food [8]: 2.5 h

— article PMC4491112 (Cancer chemotherapy and pharmacology, 2011)
